# In US20210283261A1, “Compositions and Methods for Treating ALK-Mediated Cancer” (ICAHN SCHOOL OF MEDICINE AT MOUNT SINAI, priority 2017, published 2021):
# Molecular target: T1, ALK fusion protein (Homo sapiens, UniProt Q9UM73)
# T1 construct: endogenous in cells; host or cells: NCI-H3122; the other entry of the earlier key: EML4 (Q9HC35, Echinoderm microtubule-associated protein-like 4)
# Test: Western blot of ALK fusion protein levels in NCI-H3122 cells
# Format: cell-based
# Settings: NCI-H3122, NCI-H3122 cells, 500 nM, Western blot; read-out: ALK fusion protein degradation, NCI-H3122 (500 nM)
# Method: SU-DHL-1, NCI-H3122 and NCI-H2228 cells were cultured in RPMI-1640 medium supplemented with 10% fetal bovine serum, 50 μg/mL penicillin and streptomycin. Cells were cultured in a 37° C. incubator with 5% CO2.
# Cells were washed with cold PBS once and lysed in 1× Laemmli loading buffer directly. Lysates were heated at 99° C. for […], and resolved on 4-15% precast SDS-PAGE (BIO-RAD) and transferred onto PVDF membrane. Membrane was blocked in 5% milk in Tris-buffered saline and Tween 20 (TBST) for 1 h at room temperature, followed by incubation with a primary antibody overnight at 4° C., and a horseradish peroxidase (HRP)-conjugated secondary antibody for 1 h at room temperature. The membrane was imaged by a ChemiDoc MP imaging system (BIO-RAD). Antibodies against GAPDH (abeam), Phospho-ALK (Tyr1507), ALK (Cell Signaling Technology), Tubulin (Santa Cruz) were purchased commercially. […]
# T1 sequence (Q9UM73 with tags, fused parts or gaps): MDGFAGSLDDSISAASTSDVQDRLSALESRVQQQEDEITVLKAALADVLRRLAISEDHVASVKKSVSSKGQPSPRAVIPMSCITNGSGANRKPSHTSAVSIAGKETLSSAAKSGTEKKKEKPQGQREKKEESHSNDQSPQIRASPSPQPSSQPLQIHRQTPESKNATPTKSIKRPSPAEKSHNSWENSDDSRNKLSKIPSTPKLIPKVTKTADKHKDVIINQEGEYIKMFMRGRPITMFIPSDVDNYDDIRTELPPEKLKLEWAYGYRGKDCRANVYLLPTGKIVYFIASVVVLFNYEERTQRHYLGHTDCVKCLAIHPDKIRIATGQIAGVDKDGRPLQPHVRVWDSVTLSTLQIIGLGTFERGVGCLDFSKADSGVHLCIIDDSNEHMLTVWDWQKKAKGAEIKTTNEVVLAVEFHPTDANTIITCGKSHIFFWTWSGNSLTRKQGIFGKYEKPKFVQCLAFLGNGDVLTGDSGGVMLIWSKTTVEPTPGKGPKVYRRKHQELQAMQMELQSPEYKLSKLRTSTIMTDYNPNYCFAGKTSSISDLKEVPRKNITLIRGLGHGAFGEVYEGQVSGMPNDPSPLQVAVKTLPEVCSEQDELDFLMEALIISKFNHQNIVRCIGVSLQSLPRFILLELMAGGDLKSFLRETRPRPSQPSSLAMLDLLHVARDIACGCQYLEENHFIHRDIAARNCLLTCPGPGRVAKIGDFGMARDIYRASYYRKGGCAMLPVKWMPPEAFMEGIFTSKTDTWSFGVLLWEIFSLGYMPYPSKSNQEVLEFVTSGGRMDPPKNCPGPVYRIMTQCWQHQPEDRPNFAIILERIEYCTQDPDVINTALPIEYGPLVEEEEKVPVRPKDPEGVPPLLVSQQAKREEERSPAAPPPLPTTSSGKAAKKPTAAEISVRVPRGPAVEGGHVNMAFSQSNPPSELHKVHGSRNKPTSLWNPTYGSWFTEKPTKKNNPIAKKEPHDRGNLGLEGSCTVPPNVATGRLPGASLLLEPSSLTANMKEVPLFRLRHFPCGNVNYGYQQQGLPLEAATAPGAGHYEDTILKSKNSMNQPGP
row,Compound,Dmax at 0.5 µM [%]
1,"Cc1cc(Nc2ncc(Cl)c(Nc3ccccc3S(=O)(=O)C(C)C)n2)c(OC(C)C)cc1C1CCN(C(=O)CCOCCOCCNc2cccc3c2C(=O)N(C2CCC(=O)NC2=O)C3=O)CC1 (stereo not drawn) [CZ47-09, 4-((2-(2-(3-(4-(4-((5-Chloro-4-((2-(isopropylsulfonyl)phenyl)amino)pyrimidin-2-yl)amino)-5-isopropoxy-2-methylphenyl)piperidin-1-yl)-3-oxopropoxy)ethoxy)ethyl)amino)-2-(2,6-dioxopiperidin-3-yl)isoindoline-1,3-dione]",> 80
2,"Cc1cc(Nc2ncc(Cl)c(Nc3ccccc3S(=O)(=O)C(C)C)n2)c(OC(C)C)cc1C1CCN(C(=O)CCOCCOCCOCCNc2cccc3c2C(=O)N(C2CCC(=O)NC2=O)C3=O)CC1 (stereo not drawn) [CZ47-10, 4-((2-(2-(2-(3-(4-(4-((5-Chloro-4-((2-(isopropylsulfonyl)phenyl)amino)pyrimidin-2-yl)amino)-5-isopropoxy-2-methylphenyl)piperidin-1-yl)-3-oxopropoxy)ethoxy)ethoxy)ethyl)amino)-2-(2,6-dioxopiperidin-3-yl)isoindoline-1,3-dione]",< 20
3,"Cc1cc(Nc2ncc(Cl)c(Nc3ccccc3S(=O)(=O)C(C)C)n2)c(OC(C)C)cc1C1CCN(C(=O)CCCCCCNc2cccc3c2C(=O)N(C2CCC(=O)NC2=O)C3=O)CC1 (stereo not drawn) [CZ47-06, 4-((7-(4-(4-((5-Chloro-4-((2-(isopropylsulfonyl)phenyl)amino)pyrimidin-2-yl)amino)-5-isopropoxy-2-methylphenyl)piperidin-1-yl)-7-oxoheptyl)amino)-2-(2,6-dioxopiperidin-3-yl)isoindoline-1,3-dione]",< 20
4,"Cc1cc(Nc2ncc(Cl)c(Nc3ccccc3S(=O)(=O)C(C)C)n2)c(OC(C)C)cc1C1CCN(C(=O)CCOCCOCCOCCOCCOCCNc2cccc3c2C(=O)N(C2CCC(=O)NC2=O)C3=O)CC1 (stereo not drawn) [CZ47-12, 4-((18-(4-(4-((5-Chloro-4-((2-(isopropylsulfonyl)phenyl)amino)pyrimidin-2-yl)amino)-5-isopropoxy-2-methylphenyl)piperidin-1-yl)-18-oxo-3,6,9,12,15-pentaoxaoctadecyl)amino)-2-(2,6-dioxopiperidin-3-yl)isoindoline-1,3-dione]",20 to 80
5,"Cc1cc(Nc2ncc(Cl)c(Nc3ccccc3S(=O)(=O)C(C)C)n2)c(OC(C)C)cc1C1CCN(C(=O)CCOCCC(=O)N[C@H](C(=O)N2C[C@H](O)C[C@H]2C(=O)NCc2ccc(-c3scnc3C)cc2)C(C)(C)C)CC1 [CZ47-14, (2S,4R)-1-((S)-2-(3-(3-(4-(4-((5-Chloro-4-((2-(isopropylsulfonyl)phenyl)amino)pyrimidin-2-yl)amino)-5-isopropoxy-2-methylphenyl)piperidin-1-yl)-3-oxopropoxy)propanamido)-3,3-dimethylbutanoyl)-4-hydroxy-N-(4-(4-methylthiazol-5-yl)benzyl)pyrrolidine-2-carboxamide]",20 to 80
6,"Cc1cc(Nc2ncc(Cl)c(Nc3ccccc3S(=O)(=O)C(C)C)n2)c(OC(C)C)cc1C1CCN(C(=O)CCCCCCC(=O)N[C@H](C(=O)N2C[C@H](O)C[C@H]2C(=O)NCc2ccc(-c3scnc3C)cc2)C(C)(C)C)CC1 [CZ47-26, (2S,4R)-1-((S)-2-(8-(4-(4-((5-Chloro-4-((2-(isopropylsulfonyl)phenyl)amino)pyrimidin-2-yl)amino)-5-isopropoxy-2-methylphenyl)piperidin-1-yl)-8-oxooctanamido)-3,3-dimethylbutanoyl)-4-hydroxy-N-(4-(4-methylthiazol-5-yl)benzyl)pyrrolidine-2-carboxamide]",> 80
7,"Cc1cc(Nc2ncc(Cl)c(Nc3ccccc3S(=O)(=O)C(C)C)n2)c(OC(C)C)cc1C1CCN(C(=O)CCC(=O)N[C@H](C(=O)N2C[C@H](O)C[C@H]2C(=O)NCc2ccc(-c3scnc3C)cc2)C(C)(C)C)CC1 [CZ47-22, (2S,4R)-1-((S)-2-(4-(4-(4-((5-Chloro-4-((2-(isopropylsulfonyl)phenyl)amino)pyrimidin-2-yl)amino)-5-isopropoxy-2-methylphenyl)piperidin-1-yl)-4-oxobutanamido)-3,3-dimethylbutanoyl)-4-hydroxy-N-(4-(4-methylthiazol-5-yl)benzyl)pyrrolidine-2-carboxamide]",20 to 80

# Other lines, results leading:
row,Dmax at 0.5 µM [%],Compound
1,20 to 80,"Cc1cc(Nc2ncc(Cl)c(Nc3ccccc3S(=O)(=O)C(C)C)n2)c(OC(C)C)cc1C1CCN(C(=O)CCCCCCCNc2cccc3c2C(=O)N(C2CCC(=O)NC2=O)C3=O)CC1 (stereo not drawn) [CZ47-07, 4-((8-(4-(4-((5-Chloro-4-((2-(isopropylsulfonyl)phenyl)amino)pyrimidin-2-yl)amino)-5-isopropoxy-2-methylphenyl)piperidin-1-yl)-8-oxooctyl)amino)-2-(2,6-dioxopiperidin-3-yl)isoindoline-1,3-dione]"
2,< 20,"Cc1cc(Nc2ncc(Cl)c(Nc3ccccc3S(=O)(=O)C(C)C)n2)c(OC(C)C)cc1C1CCN(C(=O)COCCOCCOCCOCCOCC(=O)N[C@H](C(=O)N2C[C@H](O)C[C@H]2C(=O)NCc2ccc(-c3scnc3C)cc2)C(C)(C)C)CC1 [CZ47-20, (2S,4R)-1-((S)-2-(tert-Butyl)-20-(4-(4-((5-chloro-4-((2-(isopropylsulfonyl)phenyl)amino)pyrimidin-2-yl)amino)-5-isopropoxy-2-methylphenyl)piperidin-1-yl)-4,20-dioxo-6,9,12,15,18-pentaoxa-3-azaicosanoyl)-4-hydroxy-N-(4-(4-methylthiazol-5-yl)benzyl)pyrrolidine-2-carboxamide]"
3,< 20,"Cc1cc(Nc2ncc(Cl)c(Nc3ccccc3S(=O)(=O)C(C)C)n2)c(OC(C)C)cc1C1CCN(C(=O)CCOCCOCCOCCOCCC(=O)N[C@H](C(=O)N2C[C@H](O)C[C@H]2C(=O)NCc2ccc(-c3scnc3C)cc2)C(C)(C)C)CC1 [CZ47-19, (2S,4R)-1-((S)-2-(tert-Butyl)-19-(4-(4-((5-chloro-4-((2-(isopropylsulfonyl)phenyl)amino)pyrimidin-2-yl)amino)-5-isopropoxy-2-methylphenyl)piperidin-1-yl)-4,19-dioxo-7,10,13,16-tetraoxa-3-azanonadecanoyl)-4-hydroxy-N-(4-(4-methylthiazol-5-yl)benzyl)pyrrolidine-2-carboxamide]"
4,20 to 80,"Cc1cc(Nc2ncc(Cl)c(Nc3ccccc3S(=O)(=O)C(C)C)n2)c(OC(C)C)cc1C1CCN(C(=O)CCCNc2cccc3c2C(=O)N(C2CCC(=O)NC2=O)C3=O)CC1 (stereo not drawn) [CZ47-03, 4-((4-(4-(4-((5-Chloro-4-((2-(isopropylsulfonyl)phenyl)amino)pyrimidin-2-yl)amino)-5-isopropoxy-2-methylphenyl)piperidin-1-yl)-4-oxobutyl)amino)-2-(2,6-dioxopiperidin-3-yl)isoindoline-1,3-dione]"
5,< 20,"Cc1cc(Nc2ncc(Cl)c(Nc3ccccc3S(=O)(=O)C(C)C)n2)c(OC(C)C)cc1C1CCN(C(=O)CCCCCCCCCC(=O)N[C@H](C(=O)N2C[C@H](O)C[C@H]2C(=O)NCc2ccc(-c3scnc3C)cc2)C(C)(C)C)CC1 [CZ47-29, (2S,4R)-1-((S)-2-(ll-(4-(4-((5-Chloro-4-((2-(isopropylsulfonyl)phenyl)amino)pyrimidin-2-yl)amino)-5-isopropoxy-2-methylphenyl)piperidin-1-yl)-11-oxoundecanamido)-3,3-dimethylbutanoyl)-4-hydroxy-N-(4-(4-methylthiazol-5-yl)benzyl)pyrrolidine-2-carboxamide]"
6,< 20,"Cc1cc(Nc2ncc(Cl)c(Nc3ccccc3S(=O)(=O)C(C)C)n2)c(OC(C)C)cc1C1CCN(C(=O)CCOCCOCCC(=O)N[C@H](C(=O)N2C[C@H](O)C[C@H]2C(=O)NCc2ccc(-c3scnc3C)cc2)C(C)(C)C)CC1 [CZ47-16, (2S,4R)-1-((S)-2-(3-(2-(3-(4-(4-((5-Chloro-4-((2-(isopropylsulfonyl)phenyl)amino)pyrimidin-2-yl)amino)-5-isopropoxy-2-methylphenyl)piperidin-1-yl)-3-oxopropoxy)ethoxy)propanamido)-3,3-dimethylbutanoyl)-4-hydroxy-N-(4-(4-methylthiazol-5-yl)benzyl)pyrrolidine-2-carboxamide]"
7,20 to 80,"Cc1cc(Nc2ncc(Cl)c(Nc3ccccc3S(=O)(=O)C(C)C)n2)c(OC(C)C)cc1C1CCN(C(=O)CCOCCOCCOCCOCCNc2cccc3c2C(=O)N(C2CCC(=O)NC2=O)C3=O)CC1 (stereo not drawn) [CZ47-11, 4-((15-(4-(4-((5-Chloro-4-((2-(isopropylsulfonyl)phenyl)amino)pyrimidin-2-yl)amino)-5-isopropoxy-2-methylphenyl)piperidin-1-yl)-15-oxo-3,6,9,12-tetraoxapentadecyl)amino)-2-(2,6-dioxopiperidin-3-yl)isoindoline-1,3-dione]"
8,< 20,"Cc1cc(Nc2ncc(Cl)c(Nc3ccccc3S(=O)(=O)C(C)C)n2)c(OC(C)C)cc1C1CCN(C(=O)COCCOCCOCC(=O)N[C@H](C(=O)N2C[C@H](O)C[C@H]2C(=O)NCc2ccc(-c3scnc3C)cc2)C(C)(C)C)CC1 [CZ47-17, (2S,4R)-1-((S)-2-(tert-Butyl)-14-(4-(4-((5-chloro-4-((2-(isopropylsulfonyl)phenyl)amino)pyrimidin-2-yl)amino)-5-isopropoxy-2-methylphenyl)piperidin-1-yl)-4,14-dioxo-6,9,12-trioxa-3-azatetradecanoyl)-4-hydroxy-N-(4-(4-methylthiazol-5-yl)benzyl)pyrrolidine-2-carboxamide]"
